Results published in patent US20170218445A1, “DRUG DISCOVERY METHODS USING PLANT DEVELOPMENTAL BIOLOGY” (SEOUL NATIONAL UNIVERSITY R&DB FOUNDATION, priority 2014, published 2017).

Test system: A. thaliana seedlings
Experiment: Growth and development response of A. thaliana seedlings grown in liquid medium with anticancer drug or hot-water extract
Format: in vivo, Arabidopsis thaliana
Settings: for generation of lateral roots: anticancer drug treatment; for hypocotyl length growth depending on concentration: statistical computing, FIG. 11
Method: The Columbia seeds collected from wild-type A. thaliana plants were sterilized and then kept in a dark place at 4° C. for 3 days to enhance germination rate thereof. The wild-type A. thaliana seeds sown on an MS solid medium containing agar were germinated at 22° C. and on the long day condition of 16 hours the day/8 hours night and allowed to grow the A. thaliana seedlings for three days.
The undiluted extract of traditional herbal medicinal material described above was diluted at the ratios of 0.5×, 0.25× and 0.05×, and the MS liquid medium of 1 ml was mixed well with distilled water to make a total volume of 2 ml. in a 12-well cell culture plate. About ten A. thaliana seedlings were planted in each well and the plates were put on a shaker to cultivate them at 100 rpm for three days. Growth and development of the arabidopsis seedlings was analyzed after three days. Each test was carried out in 3 replicates.
The analysis of A. thaliana seedling response to anticancer drugs was made in the same manner, except that the anticancer drugs were applied instead of the traditional herbal medicinal material extract.
Root length, the number of lateral roots and hypocotyl length of the A. thaliana seedlings were measured in order to find the difference in developmental biology shown by the response of A. thaliana seedlings to the anticancer drugs and the extract. The ImageJ software (see rsb.info.nih.gov/ij/) was used to measure the respective lengths in images of the photograph file.
Crude extracts were made with the traditional herbal medicinal materials of each prescription and medicinal material components thereof, respectively, and the ⅕-fold-diluted solution was used as a first effective concentration. The solution was produced by adding 0.4 ml of the crude extract to 1 ml of the 0.5× MS medium and 0.6 ml of water.
For making more quantitative analysis of the reaction to respective traditional herbal medicinal materials, the number of lateral roots were measured for 12 or more A. thaliana seeedlings in each treatment group. […]

[1] = vs DMSO-treated control seedlings, FIG. 8

CC[C@@]1(O)C(=O)OCc2c1cc1n(c2=O)Cc2cc3ccccc3nc2-1 [camptothecin]
generation of lateral roots at low concentration (0.05 uM): inhibited generation of lateral roots | generation of lateral roots (FIG. 8): markedly inhibited | hypocotyl length growth depending on concentration: inhibited in a significant level

CC(=O)O[C@H]1C(=O)[C@@]2(C)[C@H]([C@H](OC(=O)c3ccccc3)[C@]3(O)C[C@H](OC(=O)[C@H](O)[C@@H](NC(=O)c4ccccc4)c4ccccc4)C(C)=C1C3(C)C)[C@]1(OC(C)=O)CO[C@@H]1C[C@@H]2O [taxol, Paclitaxel]
root morphology (2 uM, three days after treatment, vs water-treated control roots, FIG. 9): dense root hairs and opaque epidermal cells | generation of lateral roots (FIG. 8): not significantly affected | hypocotyl length growth depending on concentration: inhibited in a significant level | number of lateral roots generated (treated or not with taxol, FIG. 8): Approximately five | hypocotyl growth [1]: inhibited in proportion to the concentrations | root growth [1]: inhibited in proportion to the concentrations | trichome morphology (branches) (vs control group, FIG. 10): changed from the three-branch type to the one-branch type
